Experiment [1] relates to MCF7 cells with forced expression of TFF3. Nature of the experiment: MCF7 cells with forced expression of TFF3: western blot, cell viability, caspase 3/7 (FIG. 5). To be noted: MCF7 cells with forced expression of TFF3, 5 μM. It counts as cell-based, human. The procedure: (A) Western blot analysis was used to assess the levels of pSTAT3, STAT3, BCL2, and CCND1 protein in MCF7 cells with forced expression of TFF3 after treatment with compound 43 (5 μM) and Stattic (2 μM) was used to treat cells. Depletion of STAT3 expression was achieved using transient-transfection of small interfering (si)-RNA (Invitrogen, Singapore) directed to STAT3 transcript as previously described in Pandey V et al., Breast Cancer Res. 2014; 16(5):429. Anti-TFF3 polyclonal antibody was used as previously described (ibid). Soluble whole cell extracts were run on a SDS-PAGE and immunoblotted as previously described (ibid). β-ACTIN was used as input control for cell lysate. The sizes of detected protein bands in kDa are shown on the right side (B) Cell viability and (C) caspase 3/7 activities in MCF7 cells with forced expression of TFF3 after treatment with compound 43 (5 μM) and Stattic (2 μM) was used to treat cells. […] Evaluated using ApoTox-Glo™ Triplex Assay Kit, Promega (Singapore) according to manufacturer's instructions. Cell viability fluorescence is measured at 400Ex/505Em, while apoptosis (caspase 3/7 activities) is determined with the luminescence measurement. […] Statistical significance was assessed by using an unpaired two-tailed Student's t test (P<0.05 was considered as significant) using GraphPad Prism5. […]
A general note: Immunoblotting shows a protein as a band on a membrane.

The test system of experiment [2] is high-TFF3 expression MC cells. The experiment in a line: ApoTox-Glo Triplex Assay and western blot (FIG. 2). The experiment is classed as cell-based, human. The settings on record: 10 μM. How it is done: Effect of compound 43 (10 μM) on cell viability of high-TFF3 MC cell lines. (A) Cell viability (B) caspase 3/7 activities and (C) cytotoxicity was evaluated using ApoTox-Glo™ Triplex Assay Kit Promega (Singapore) according to manufacturer's instructions. Cell viability fluorescence is measured at 400Ex/505Em, cytotoxicity fluorescence is measured at 485Ex/520Em, while apoptosis (caspase 3/7 activities) is determined by luminescence measurement. (D) Western blot analysis was used to assess the level of various protein markers and protein activity in high-TFF3 expression MC cells after treatment with compound 43. Soluble whole cell extracts were run on a SDS-PAGE and immunoblotted as previously described in Pandey V et al., Breast Cancer Res. 2014; 16(5):429. β-ACTIN (ACTB) was used as input control for cell lysate. The sizes of detected protein bands in kDa are shown on the left side. Statistical significance was assessed by using an unpaired two-tailed Student's t test (P<0.05 was considered as significant) using GraphPad Prism5. Columns are mean of triplicate experiments; bars, ±SD. **P<0.001, *P<0.05.

Regarding `Cc1cc(-c2ccc(C3C(C#N)=C(N)Oc4c3c(=O)oc3ccccc43)cc2)cnc1F` (centres unmarked) [Compound 43, 2-Amino-4-(4-(6-fluoro-5-methylpyridin-3-yl)phenyl)-5-oxo-4H,5H-pyrano[3,2-c]chromene-3-carbonitrile], the TFF3-stimulated effects result in experiment [1] is “reverted”. In addition, the intrinsic apoptosis result in experiment [2] is given as “stimulates intrinsic apoptosis”.

Values taken from patent US20200147039A1, “COMPOUNDS USEFUL IN INHIBITING HUMAN TREFOIL FACTOR 3” (NATIONAL UNIVERSITY OF SINGAPORE, priority 2017, published 2020).
